Results reported in patent US20230123334A1, “AMINO LIPID COMPOUND, PREPARATION METHOD THEREFOR, AND APPLICATION THEREOF” (SHENZHEN SHENXIN BIOTECHNOLOGY CO., LTD., priority 2020, published 2023).

Experiments:
HEK293 cells [1] = test: Preliminary screening as DNA vectors, GFP transfection of HEK293 cells; type: cell-based; settings: HEK293 cells; lipid/DOPE liposome with 75 ng plasmid DNA (psin-EGFP-IRES-Puro); number of cells expressing GFP divided by total number of nuclei (Hoechst)
Procedure, shortened: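 HEK293 cells in DMEM/10% FBS transfected with 75 ng EGFP plasmid per well complexed with amino lipid/DOPE liposomes in pH 5.6 sodium acetate. Hoechst nuclear stain added 20-24 h post-transfection, then cells cultured another 20-24 h. Confocal imaging gives GFP-positive cells as % of total nuclei.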

HEK293 cells [2] = test: Preliminary screening as mRNA vectors, EGFP mRNA transfection of HEK293 cells; type: cell-based; settings: HEK293 cells, 96-well plates, EGFP mRNA 50 ng per well; percentage of GFP fluorescent cells relative to total number of cells (Hoechst)
Procedure, shortened: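 HEK293 cells in DMEM plus 10% FBS transfected in 96-well format with 50 ng EGFP mRNA per well; Lipofectamine2000 served as positive control. Read-out is the percentage of GFP-fluorescent cells among total cells, counted by Hoechst nuclear stain.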

CCCCCCCCCCCNc1nc(NCCCCCCCCCCC)nc(NCCCN(C)C)n1 [Compound N11N11D6]
Absolute DNA transfection efficiency in HEK293 cells (HEK293 cells [1]): 0.7% | Absolute mRNA transfection efficiency in HEK293 cells (HEK293 cells [2]): 1.1%

CCCCCCCCCCCCCCSc1nc(NCCCN(C)C)nc(SCCCCCCCCCCCC)n1 [Compound S12S14D6]
Absolute DNA transfection efficiency in HEK293 cells (HEK293 cells [1]): 4.0% | Absolute mRNA transfection efficiency in HEK293 cells (HEK293 cells [2]): 4.6%

CCCCCCCCCCCCCCCCCCNc1nc(NCCCCCCCC)nc(NCCN2CCN(C)CC2)n1 [Compound N8N18D5]
Absolute DNA transfection efficiency in HEK293 cells (HEK293 cells [1]): 1.9% | Absolute mRNA transfection efficiency in HEK293 cells (HEK293 cells [2]): 0.9%

CCCCCCCCCCCCN(CCCCCCCCCCCC)c1nc(NCCN(CC)CC)nc(N(CCCCCCCCCCCC)CCCCCCCCCCCC)n1 [2N12^2N12D7]
Absolute DNA transfection efficiency in HEK293 cells (HEK293 cells [1]): 0.0% | Absolute mRNA transfection efficiency in HEK293 cells (HEK293 cells [2]): 0.3%

CCCCCCCCCCCCCCCNc1nc(NCCCCCCC)nc(NCCN2CCCCC2)n1 [Compound N7N15D4]
Absolute DNA transfection efficiency in HEK293 cells (HEK293 cells [1]): 0.2% | Absolute mRNA transfection efficiency in HEK293 cells (HEK293 cells [2]): 0.0%

CCCCCCCCCCCCCCCCSc1nc(NCCN2CCCC2)nc(SCCCCCCCC)n1 [Compound S8S16D3]
Absolute DNA transfection efficiency in HEK293 cells (HEK293 cells [1]): 20.7% | Absolute mRNA transfection efficiency in HEK293 cells (HEK293 cells [2]): 37.3%

CCCCCCCCCCCCCCCCNc1nc(NCCCCCCCCCCCCC)nc(NCCN(C)C)n1 [Compound N13N16D1]
Absolute DNA transfection efficiency in HEK293 cells (HEK293 cells [1]): 0.8% | Absolute mRNA transfection efficiency in HEK293 cells (HEK293 cells [2]): 1.5%

CCCCCCCCCCCCCCCCNc1nc(NCCCCCCC)nc(NCC2CCN(C)CC2)n1 [Compound N7N16D10]
Absolute DNA transfection efficiency in HEK293 cells (HEK293 cells [1]): 1.8% | Absolute mRNA transfection efficiency in HEK293 cells (HEK293 cells [2]): 3.1%

CCCCCCCCCCCCCCCCCCSc1nc(NCCCN2CCN(C)CC2)nc(SCCCCCCCCCCCCCCCC)n1 [Compound S16S18D9]
Absolute DNA transfection efficiency in HEK293 cells (HEK293 cells [1]): 0.4% | Absolute mRNA transfection efficiency in HEK293 cells (HEK293 cells [2]): 0.5%

CCCCCCCCCCCCCCCCCCNc1nc(NCCCCCCCCCCCCCCCCCC)nc(NCCCN2CCOCC2)n1 [Compound N18N18D8]
Absolute DNA transfection efficiency in HEK293 cells (HEK293 cells [1]): 0.1% | Absolute mRNA transfection efficiency in HEK293 cells (HEK293 cells [2]): 0.0%

CCCCCCCCCCCCCCSc1nc(NCCN2CCN(C)CC2)nc(SCCCCCCCC)n1 [Compound S8S14D5]
Absolute DNA transfection efficiency in HEK293 cells (HEK293 cells [1]): 29.9% | Absolute mRNA transfection efficiency in HEK293 cells (HEK293 cells [2]): 52.7%

CCCCCCCCCCCCCCCCCCSc1nc(NCCN(C)C)nc(SCCCCCCCC)n1 [Compound S8S18D1]
Absolute DNA transfection efficiency in HEK293 cells (HEK293 cells [1]): 7.6% | Absolute mRNA transfection efficiency in HEK293 cells (HEK293 cells [2]): 3.9%

CCCCCCCCCCCCCCCCCCNc1nc(NCCCCCCCCCCCCCCCC)nc(NCCCN(C)C)n1 [Compound N16N18D6]
Absolute DNA transfection efficiency in HEK293 cells (HEK293 cells [1]): 0.0% | Absolute mRNA transfection efficiency in HEK293 cells (HEK293 cells [2]): 4.4%

CCCCCCCCCCCCCCSc1nc(NCCN2CCN(C)CC2)nc(SCCCCCCCCCCC)n1 [Compound S11S14D5]
Absolute DNA transfection efficiency in HEK293 cells (HEK293 cells [1]): 5.1% | Absolute mRNA transfection efficiency in HEK293 cells (HEK293 cells [2]): 9.1%

CCCCCCCCCCCCCNc1nc(NCCCCCCCC)nc(NCCN2CCCC2)n1 [Compound N8N13D3]
Absolute DNA transfection efficiency in HEK293 cells (HEK293 cells [1]): 0.9% | Absolute mRNA transfection efficiency in HEK293 cells (HEK293 cells [2]): 2.7%

CCCCCCCCCCCCSc1nc(NCCN2CCCC2)nc(SCCCCCCCCCCC)n1 [Compound S11S12D3]
Absolute DNA transfection efficiency in HEK293 cells (HEK293 cells [1]): 5.4% | Absolute mRNA transfection efficiency in HEK293 cells (HEK293 cells [2]): 3.2%

CCCCCCCCCNc1nc(NCCCCCC)nc(NCCN(C)C)n1 [Compound N6N9D1]
Absolute DNA transfection efficiency in HEK293 cells (HEK293 cells [1]): 0.0% | Absolute mRNA transfection efficiency in HEK293 cells (HEK293 cells [2]): 0.0%

CCCCCCCCCCCCCCCNc1nc(NCCCCCCCCC)nc(NCCN2CCCC2)n1 [Compound N9N15D3]
Absolute DNA transfection efficiency in HEK293 cells (HEK293 cells [1]): 0.5% | Absolute mRNA transfection efficiency in HEK293 cells (HEK293 cells [2]): 4.7%

CCCCCCCCCCCCN(CCCCCCCCCCCC)c1nc(NCCCCCCCC)nc(NCCN2CCOCC2)n1 [N8^2N12D2]
Absolute DNA transfection efficiency in HEK293 cells (HEK293 cells [1]): 0.1% | Absolute mRNA transfection efficiency in HEK293 cells (HEK293 cells [2]): 1.4%

CCCCCCCNc1nc(NCCCCCC)nc(NCCCN(C)C)n1 [Compound N6N7D6]
Absolute DNA transfection efficiency in HEK293 cells (HEK293 cells [1]): 0.0% | Absolute mRNA transfection efficiency in HEK293 cells (HEK293 cells [2]): 0.1%

CCCCCCCCCCCCCNc1nc(NCCCCCC)nc(NCCN(C)C)n1 [Compound N6N13D1]
Absolute DNA transfection efficiency in HEK293 cells (HEK293 cells [1]): 0.0% | Absolute mRNA transfection efficiency in HEK293 cells (HEK293 cells [2]): 0.0%

CCCCCCCCCNc1nc(NCCCCCC)nc(NCC2CCN(C)CC2)n1 [Compound N6N9D10]
Absolute DNA transfection efficiency in HEK293 cells (HEK293 cells [1]): 0.0% | Absolute mRNA transfection efficiency in HEK293 cells (HEK293 cells [2]): 0.3%

CCCCCCCCCCCSc1nc(NCCN2CCN(C)CC2)nc(SCCCCCCCCC)n1 [Compound S9S11D5]
Absolute DNA transfection efficiency in HEK293 cells (HEK293 cells [1]): 11.4% | Absolute mRNA transfection efficiency in HEK293 cells (HEK293 cells [2]): 48.6%

CCCCCCCCCCCCCCSc1nc(NCCCN2CCN(C)CC2)nc(SCCCCCCCC)n1 [Compound S8S14D9]
Absolute DNA transfection efficiency in HEK293 cells (HEK293 cells [1]): 16.0% | Absolute mRNA transfection efficiency in HEK293 cells (HEK293 cells [2]): 13.5%

CCCCCCCCNc1nc(NCCCCCCC)nc(NCCCN(C)C)n1 [Compound N7N8D6]
Absolute DNA transfection efficiency in HEK293 cells (HEK293 cells [1]): 0.0% | Absolute mRNA transfection efficiency in HEK293 cells (HEK293 cells [2]): 0.0%

CCCCCCCCCCCCCCCSc1nc(NCCN2CCCCC2)nc(SCCCCCCCCCCCCCC)n1 [Compound S14S15D4]
Absolute DNA transfection efficiency in HEK293 cells (HEK293 cells [1]): 0.7% | Absolute mRNA transfection efficiency in HEK293 cells (HEK293 cells [2]): 0.1%

CCCCCCCCCCCCCCCCCCNc1nc(NCCCCCCCCCCCCCCCC)nc(NCCN2CCCC2)n1 [Compound N16N18D3]
Absolute DNA transfection efficiency in HEK293 cells (HEK293 cells [1]): 0.4% | Absolute mRNA transfection efficiency in HEK293 cells (HEK293 cells [2]): 20.8%

CCCCCCCCCCCCCCCNc1nc(NCCCCCCCC)nc(NCCN2CCCCC2)n1 [Compound N8N15D4]
Absolute DNA transfection efficiency in HEK293 cells (HEK293 cells [1]): 0.5% | Absolute mRNA transfection efficiency in HEK293 cells (HEK293 cells [2]): 0.0%

CCCCCCCCCCCCCCSc1nc(NCCN(CC)CC)nc(SCCCCCCCCCCCC)n1 [Compound S12S14D7]
Absolute DNA transfection efficiency in HEK293 cells (HEK293 cells [1]): 3.3% | Absolute mRNA transfection efficiency in HEK293 cells (HEK293 cells [2]): 0.9%

CCCCCCCCCCCCNc1nc(NCCCCCC)nc(NCCCN2CCOCC2)n1 [Compound N6N12D8]
Absolute DNA transfection efficiency in HEK293 cells (HEK293 cells [1]): 0.0% | Absolute mRNA transfection efficiency in HEK293 cells (HEK293 cells [2]): 0.1%

CCCCCCCCCCCNc1nc(NCCCCCCCC)nc(NCCN(C)C)n1 [Compound N8N11D1]
Absolute DNA transfection efficiency in HEK293 cells (HEK293 cells [1]): 0.4% | Absolute mRNA transfection efficiency in HEK293 cells (HEK293 cells [2]): 0.0%

CCCCCCCCCNc1nc(NCCCCCCCCC)nc(NCCN(C)C)n1 [Compound N9N9D1]
Absolute DNA transfection efficiency in HEK293 cells (HEK293 cells [1]): 0.2% | Absolute mRNA transfection efficiency in HEK293 cells (HEK293 cells [2]): 0.5%

CCCCCCCCCCCCCCCCSc1nc(NCCCN2CCOCC2)nc(SCCCCCCCCCCC)n1 [Compound S11S16D8]
Absolute DNA transfection efficiency in HEK293 cells (HEK293 cells [1]): 4.7% | Absolute mRNA transfection efficiency in HEK293 cells (HEK293 cells [2]): 0.9%

CCCCCCCCCSc1nc(NCCCN(C)C)nc(SCCCCCCCCC)n1 [Compound S9S9D6]
Absolute DNA transfection efficiency in HEK293 cells (HEK293 cells [1]): 5.6% | Absolute mRNA transfection efficiency in HEK293 cells (HEK293 cells [2]): 33.0%

CCCCCCCNc1nc(NCCCCCC)nc(NCCCN2CCN(C)CC2)n1 [Compound N6N7D9]
Absolute DNA transfection efficiency in HEK293 cells (HEK293 cells [1]): 0.0% | Absolute mRNA transfection efficiency in HEK293 cells (HEK293 cells [2]): 0.0%

CCCCCCCCCSc1nc(NCCCN2CCN(C)CC2)nc(SCCCCCCCCC)n1 [Compound S9S9D9]
Absolute DNA transfection efficiency in HEK293 cells (HEK293 cells [1]): 19.3% | Absolute mRNA transfection efficiency in HEK293 cells (HEK293 cells [2]): 19.3%

CCCCCCCCCCCCCCCCNc1nc(NCCCCCCC)nc(NCCN2CCN(C)CC2)n1 [Compound N7N16D5]
Absolute DNA transfection efficiency in HEK293 cells (HEK293 cells [1]): 0.3% | Absolute mRNA transfection efficiency in HEK293 cells (HEK293 cells [2]): 0.0%
